Patent US7989451B2, “Tricyclic 1,2,4-triazine oxides and compositions for therapeutic use in cancer treatments” (Auckland Uniservices Limited, priority 2005, dated 2011)
Read-outs that look alike come from different tables or passages of the source.

What was measured:
[1] = test system: human colon carcinoma HT29; test: Proliferation assay (IC50) under aerobic and hypoxic conditions, HT29; type: cell-based; details: for IC50: Homo sapiens, 4 h drug exposure, sulforhodamine B; for HCR: hypoxic cytotoxicity ratio = IC50 aerobic/IC50 hypoxic
Description: (§1) Compounds representative of the invention were evaluated under both aerobic and hypoxic conditions in a proliferation assay (IC50), using two cell lines: human colon carcinoma HT29, and human cervical carcinoma SiHa (Table 1).
(§2) Drug exposures were performed in 96-well plates (Nunc) either using a 37 DC humidified incubator (20% O2, 5% CO2) or in the incubator compartment (37° C.) of an anaerobic chamber (Shell Lab) where palladium catalyst scrubbed gas (90% N2, 5% H2, 5% CO2) ensures severe anoxia (<0.001% O2). For each experiment, compounds were simultaneously tested under both oxic and hypoxic conditions and included TPZ as an internal control. An 8-methyl-5-nitroquinoline derivative, SN 24349, known to require very low oxygen concentrations for bioactivation (Siim et al., Br. J. Cancer 1994, 70, 596-603) was used to confirm that strict hypoxia was present during the experiment. […] Cell cultures were grown in αMEM (Gibco) containing 5% heat inactivated FCS and maintained in exponential growth phase. For each individual experiment an appropriate number of cells were seeded (HT29=1100; SiHa=1500) into wells in αMEM+10% FCS+10 mM added glucose+100 μM 2′-deoxycytidine (2′dCyd), and allowed to attach for 2-3 h. High glucose (final concentration 17 mM) and the presence of 2′-dCyd minimize hypoxia-induced cell cycle arrest. Cultures were then exposed to drugs, using 3-fold serial dilutions in duplicate, for a further 4 h. Subsequently cells were washed free of compound using complete media (without glucose/2′-dCyd) and allowed to grow for 5 (oxic) or 6 (anoxic) days. Plates were stained with sulforhodamine B as described previously (Wilson et al., J. Med. Chem. 1989, 32, 31-38) and IC50 values determined.
(§3) HCR=Hypoxic cytotoxicity ratio is defined as the ratio of IC50 values under aerobic and hypoxic conditions (IC50 aerobic/IC50 hypoxic).

[2] = test system: human cervical carcinoma SiHa; test: Proliferation assay (IC50) under aerobic and hypoxic conditions, SiHa; type: cell-based; details: for IC50: Homo sapiens, 4 h drug exposure, sulforhodamine B; for HCR: hypoxic cytotoxicity ratio = IC50 aerobic/IC50 hypoxic
Description: as §1, §2, §3

[3] = HT-29, hypoxic (anaerobic chamber, <0.001% O2), then 6 days growth, read-out: IC50 (μM) hypoxic
[4] = HT-29, oxic (20% O2), then 5 days growth, read-out: IC50 (μM) oxic
[5] = hypoxic (anaerobic chamber, <0.001% O2), then 6 days growth, read-out: IC50 (μM) hypoxic
[6] = oxic (20% O2), then 5 days growth, read-out: IC50 (μM) oxic

CN(C)CCNc1n[n+]([O-])c2c3c(ccc2[n+]1[O-])CCC3 [Compound 7, N^1,N^1-Dimethyl-N^2-(1,4-dioxido-8,9-dihydro-7H-indeno[5,4-e][1,2,4]triazin-3-yl)-1,2-ethanediamine]
IC50 [1, 3]: 3 µM
IC50 [1, 4]: 255 ± 53 µM
HCR [1]: 67
IC50 [2, 5]: 1.6 µM
IC50 [2, 6]: 226 ± 46 µM
HCR [2]: 99
melting point: 153 to 156 °C

CCN(CC)CCNc1n[n+]([O-])c2c3c(ccc2[n+]1[O-])CCC3 [Compound 9, N^1,N^1-Diethyl-N^2-(1,4-dioxido-8,9-dihydro-7H-indeno[5,4-e][1,2,4]triazin-3-yl)-1,2-ethanediamine]
IC50 [1, 3]: 4.2 ± 1.5 µM
IC50 [1, 4]: 72 ± 22 µM
HCR [1]: 17 ± 5
IC50 [2, 5]: 0.9 ± 0.2 µM
IC50 [2, 6]: 59 ± 4 µM
HCR [2]: 64 ± 4
melting point: 138 to 141 °C

CCCN(CCC)CCNc1nc2ccc3c(c2[n+]([O-])n1)CCC3 [Compound 11, N^1-(1-Oxido-8,9-dihydro-7H-indeno[5,4-e][1,2,4]triazin-3-yl)-N^2,N^2-dipropyl-1,2-ethanediamine]
IC50 [1, 3]: 12.4 µM
IC50 [1, 4]: 99 ± 9 µM
HCR [1]: 7
IC50 [2, 5]: 3.3 ± 0.3 µM
IC50 [2, 6]: 74 ± 27 µM
HCR [2]: 23 ± 10
melting point: 133 to 135 °C

[O-][n+]1nc(NCCN2CCCCC2)[n+]([O-])c2ccc3c(c21)CCC3 [Compound 13, N-[2-(1-Piperidinyl)ethyl]-8,9-dihydro-7H-indeno[5,4-e][1,2,4]triazin-3-amine 1,4-Dioxide]
IC50 [1, 3]: 4.9 ± 0.6 µM
IC50 [1, 4]: 251 ± 24 µM
HCR [1]: 53 ± 11
IC50 [2, 5]: 1 ± 0.1 µM
IC50 [2, 6]: 52 ± 8 µM
HCR [2]: 51 ± 1
melting point: 138 to 141 °C

Nc1n[n+]([O-])c2cc3c(cc2[n+]1[O-])CCC3 [Compound 20, 7,8-Dihydro-6H-indeno[5,6-e][1,2,4]triazin-3-amine 1,4-Dioxide]
IC50 [1, 3]: 15 ± 6 µM
IC50 [1, 4]: 387 ± 108 µM
HCR [1]: 27 ± 2
IC50 [2, 5]: 8.3 ± 0.4 µM
IC50 [2, 6]: 253 ± 30 µM
HCR [2]: 31 ± 5
melting point: 190 to 195 °C

CN(C)CCNc1n[n+]([O-])c2cc3c(cc2[n+]1[O-])CCC3 [Compound 23, N^1-(1,4-Dioxido-7,8-dihydro-6H-indeno[5,6-e][1,2,4]triazin-3-yl)-N^2,N^2-dimethyl-1,2-ethanediamine]
IC50 [1, 3]: 2.3 ± 0.6 µM
IC50 [1, 4]: 318 ± 14 µM
HCR [1]: 152 ± 35
IC50 [2, 5]: 0.7 ± 0.3 µM
IC50 [2, 6]: 105 ± 21 µM
HCR [2]: 111 ± 5
melting point: 150 to 153 °C

[O-][n+]1nc(NCCO)[n+]([O-])c2cc3c(cc21)CCC3 [Compound 25, 2-[(1,4-Dioxido-7,8-dihydro-6H-indeno[5,6-e][1,2,4]triazin-3-yl)amino]ethanol]
IC50 [1, 3]: 47 ± 4 µM
IC50 [1, 4]: 1520 µM
HCR [1]: 32
IC50 [2, 5]: 17.7 ± 0.6 µM
IC50 [2, 6]: 751 µM
HCR [2]: 42
melting point: 187 to 188 °C

CCCN(CCC)CCNc1n[n+]([O-])c2cc3c(cc2[n+]1[O-])CCC3 [Compound 29, N^1-(1,4-Dioxido-7,8-dihydro-6H-indeno[5,6-e][1,2,4]triazin-3-yl)-N^2,N^2-dipropyl-1,2-ethanediamine]
IC50 [1, 3]: 2.5 µM
IC50 [1, 4]: 196 µM
HCR [1]: 77
IC50 [2, 5]: 0.7 µM
IC50 [2, 6]: 63 µM
HCR [2]: 91
melting point: 142 to 145 °C

COCCN(C)CCNc1n[n+]([O-])c2cc3c(cc2[n+]1[O-])CCC3 [Compound 31, N^1-(1,4-Dioxido-7,8-dihydro-6H-indeno[5,6-e][1,2,4]triazin-3-yl)-N^2-(2-methoxyethyl)-N2-methyl-1,2-ethanediamine]
IC50 [1, 3]: 5.9 ± 0.8 µM
IC50 [1, 4]: 172 ± 100 µM
HCR [1]: 26 ± 12
IC50 [2, 5]: 2.5 ± 0.8 µM
IC50 [2, 6]: 162 ± 48 µM
HCR [2]: 67 ± 2
melting point: 58 to 61 °C
